In article PMC12655819 (Pharmaceuticals, 2025):
Marks after values point to notes of the source that are not given here.

Assays:
[1] = Pharmacokinetics from plasma unbound levels in plasma ultrafiltrate (fMPA, fMPAG); type: in vivo, human; conditions: free level in plasma ultrafiltrate
Experimental: (§1) The AUC0–4, Tmax, and Cmax parameters were calculated using the R (version 4.5.1) package software (R Core Team, 2025), supported by RStudio (version 2025.05.1+513) from Posit PBC software (Boston, MA, USA). […] The vMPA and vMPAG capillary blood levels were corrected using formulas validated in our department (partially published by Kocur et al.) and expressed as estimated capillary plasma concentrations. […] Individual PK profiles for each patient included in the study are provided in the Supplementary File (Figures S4 and S5).
Next, the sample was centrifuged at 3000× g for 5 min at ambient conditions, and the supernatant was transferred into a chromatographic vial. Sample processing was performed at the Department of Drug Chemistry, Pharmaceutical and Biomedical Analysis, Medical University of Warsaw, Poland.
(§2) From each patient (if they consented to all sampling types), four samples were collected simultaneously at all defined time points of the dynamic PK profile (0, 0.5, 1, 2, and 4 h after drug administration). Whole blood was collected using standard venipuncture by a phlebotomist into a K3-EDTA test tube (Sarstedt, Nümbrecht, Germany). Plasma for analytical determination was obtained by centrifuging a portion of the whole blood and stored at −40 °C until assay. At the same time, 10 µL capillary blood samples were collected from a finger prick using the Mitra™ device (VAMS samples were stored in light-protected aluminum zip bags with desiccant at room temperature).

[2] = cited from earlier work
[3] = Pharmacokinetics from liquid (wet) saliva collected with Salivette (sMPA, sMPAG); type: in vivo, human
Experimental: as §1
The concentrations of sMPA and sMPAG in saliva were determined using a previously described LC-MS/MS method. Briefly, 100 µL of saliva was used for analysis. […] Samples were vortexed and evaporated to dryness. The dry residues were reconstituted in 100 μL of a mobile phase consisting of a 1:4 (v/v) mixture of methanol and water, both of which contained 0.1% formic acid. After double centrifugation, the samples were analyzed using a Shimadzu Ultra-Performance Liquid Chromatography (UPLC) system (Shimadzu Co., Kyoto, Japan) coupled with a triple quadrupole mass spectrometer (LCMS-8030; Simadzu Co., Kyoto, Japan). The method was linear over the concentration range of 2–500 μg/L for both sMPA and sMPAG. This part of the work was carried out with the support of the Centre of Innovative Pharmaceutical Technology, Poznan University of Medical Sciences (Poznan, Poland).
(§3) Additionally, the unstimulated saliva samples were simultaneously collected using the Salivette® device (Sarstedt, Nümbrecht, Germany) and Mitra™ 20 µL microsampling tips (Neoteryx/Trajan, Torrance, CA, USA (all saliva samples simultaneously to plasma and capillary blood sampling: 0, 0.5, 1, 2, and 4 h after drug administration). Patients had not eaten for at least 30 min before saliva collection, and their mouths were rinsed with water. The study was conducted in accordance with the Declaration of Helsinki and the International Council for Harmonization Guideline for Good Clinical Practice. The protocol was approved by the Bioethics Committee of the Children’s Memorial Health Institute, Warsaw, Poland (approval No. 15/KBE/2023, with subsequent amendments). Written informed consent was obtained from all participants and their legal guardians.

[4] = Pharmacokinetics from dried saliva collected with Mitra VAMS (vsMPA, vsMPAG); type: in vivo, human
Experimental: as §1
Samples were sonicated (36 °C, 30 min), vortexed (15 min), and frozen (−20 °C, 15 min). After centrifugation (10 min, 25,155× g), 350 µL of supernatant was transferred to a total recovery borosilicate vial (Finneran, Vineland, NJ, USA) and evaporated to dryness under a stream of nitrogen (40 °C) using Ultravap® Levante (Porvair, Hampshire, Great Britain). The residue was reconstituted in 150 µL of mobile phase A, filtered in a Verex™ vial, and 5 µL was injected into the LC–MS/MS system. Analyses were performed at the Department of Drug Chemistry, Pharmaceutical and Biomedical Analysis, Medical University of Warsaw, Poland.
as §3

[5] = Pharmacokinetics from total plasma levels (tMPA, tMPAG), LC-MS/MS; type: in vivo, human; conditions: total plasma level
Experimental: as §1
Briefly, 50 μL of plasma was diluted with 90 μL of deionized water, and 10 μL of IS (d3-MPA) was added. Next, 400 μL of the precipitation mixture (a 0.1 M aqueous zinc sulfate solution and acetonitrile, 50:50 (v/v)) was added. The sample was then shaken for 10 min at room temperature using an automatic rotary vortex (Ohaus, Parsippany, NJ, USA) and centrifuged for 10 min at 13,500× g at 4 °C thereafter. The supernatant was transferred into chromatographic vials and analyzed using LC-MS/MS. Sample processing was performed at the Department of Drug Chemistry, Pharmaceutical and Biomedical Analysis, Medical University of Warsaw, Poland.
as §2

[6] = 0 h (pre-dose), n = 20, mean ± SD
[7] = 0.5 h post-dose, n = 20, mean ± SD
[8] = 1 h post-dose, n = 20, mean ± SD
[9] = 2 h post-dose, n = 20, mean ± SD
[10] = 4 h post-dose, n = 20, mean ± SD
[11] = normalized to MMF dose, n = 20, mean (range)
[12] = pediatric renal transplant recipients (n = 20) on MMF (CellCept), steady state, 0–4 h post-dose, mean (range)
[13] = pediatric renal transplant recipients (n = 20) on MMF, mean (range)
[14] = wet saliva, pediatric renal transplant recipients (n = 20) on MMF, mean (range)
[15] = dried saliva (Mitra VAMS), pediatric renal transplant recipients (n = 20) on MMF, mean (range)

COc1c(C)c2c(c(O[C@@H]3O[C@H](C(=O)O)[C@@H](O)[C@H](O)[C@H]3O)c1C/C=C(\C)CCC(=O)O)C(=O)OC2 [MPAG, mycophenolic acid glucuronide]
C0 concentration [1, 6]: 3.893 ± 2.073 mg/L | C0.5 concentration [1, 7]: 6.264 ± 4.238 mg/L | C1 concentration [1, 8]: 8.029 ± 4.393 mg/L | C2 concentration [1, 9]: 6.889 ± 3.791 mg/L | C4 concentration [1, 10]: 4.701 ± 2.218 mg/L | AUC(0–4) Normalized to Drug Dose [1, 11]: 66.47 (19.97–195.68) ^d mg × h/mL × g | Cmax [1, 12]: 8.98 (3.85–19.81) mg/L | AUC(0–4) [1, 13]: 25.2 mg·h/L | Tmax [1, 13]: 1.55 (0.50–2.00) h | increase of concentration in severe renal impairment ([2]; patients with severe renal impairment, up): 3–6 fold | time of peak plasma concentration after administration ([2]; plasma): 1 to 4 h | binding to albumin ([2]; stable transplant recipients): approximately 82% | Cmax ([3]; wet saliva (unstimulated, Salivette), pediatric renal transplant recipients (n = 20) on MMF, 0–4 h post-dose, mean (range)): 73.74 (22.00–146.00) µg/L | C0 concentration ([3]; wet saliva, 0 h (pre-dose), n = 20, mean ± SD): 19.135 ± 12.712 µg/L | C0.5 concentration ([3]; wet saliva, 0.5 h post-dose, n = 20, mean ± SD): 39.659 ± 26.611 µg/L | C1 concentration ([3]; wet saliva, 1 h post-dose, n = 20, mean ± SD): 70.173 ± 44.943 µg/L | C2 concentration ([3]; wet saliva, 2 h post-dose, n = 20, mean ± SD): 39.371 ± 25.210 µg/L | C4 concentration ([3]; wet saliva, 4 h post-dose, n = 20, mean ± SD): 22.417 ± 15.097 µg/L | AUC(0–4) Normalized to Drug Dose ([3]; wet saliva, normalized to MMF dose, n = 20, mean (range)): 352.10 (119.88–857.42) ^c µg × h/mL × g | AUC(0–4) [3, 14]: 158 µg·h/L | Tmax [3, 14]: 1.08 (0.50–2.00) h | Cmax ([4]; dried saliva (Mitra VAMS 20 µL), pediatric renal transplant recipients (n = 20) on MMF, 0–4 h post-dose, mean (range)): 70.30 (19.04–146.54) µg/L | C0 concentration ([4]; dried saliva (Mitra VAMS), 0 h (pre-dose), n = 20, mean ± SD): 17.834 ± 12.122 µg/L | C0.5 concentration ([4]; dried saliva (Mitra VAMS), 0.5 h post-dose, n = 20, mean ± SD): 37.704 ± 24.598 µg/L | C1 concentration ([4]; dried saliva (Mitra VAMS), 1 h post-dose, n = 20, mean ± SD): 67.422 ± 44.462 µg/L | C2 concentration ([4]; dried saliva (Mitra VAMS), 2 h post-dose, n = 20, mean ± SD): 39.258 ± 25.317 µg/L | C4 concentration ([4]; dried saliva (Mitra VAMS), 4 h post-dose, n = 20, mean ± SD): 19.762 ± 13.638 µg/L | AUC(0–4) Normalized to Drug Dose ([4]; dried saliva (Mitra VAMS), normalized to MMF dose, n = 20, mean (range)): 335.45 (115.15–902.00) ^c µg × h/mL × g | AUC(0–4) [4, 15]: 145 µg·h/L | Tmax [4, 15]: 1.03 (0.50–2.00) h | C0 concentration [5, 6]: 23.805 ± 12.32 mg/L | C0.5 concentration [5, 7]: 37.800 ± 17.081 mg/L | C1 concentration [5, 8]: 48.647 ± 22.134 mg/L | C2 concentration [5, 9]: 34.258 ± 13.977 mg/L | C4 concentration [5, 10]: 27.075 ± 12.413 mg/L | AUC(0–4) Normalized to Drug Dose [5, 11]: 384.94 (106.81–1050.08) ^d mg × h/mL × g | Cmax [5, 12]: 49.54 (19.24–109.28) mg/L | AUC(0–4) [5, 13]: 144 mg·h/L | Tmax [5, 13]: 1.33 (0.50–2.00) h
